In PMC12643509, “High-throughput screens identify genotype-specific therapeutics for channelopathies” (JCI Insight, 2025):
Values joined by “and” are separate entries in the source; they are usually repeats but may differ in a detail not shown here. Equal entries are not always repeated.

Columns and labels:
WT Kv11.1 = WT Kv11.1 (Homo sapiens, UniProt Q12809); experiment: Whole-cell patch-clamp electrophysiology, drug in bath solution, WT; format: cell-based; set-up: expressed in transfected cells; Activation tail currents / Steady-state currents / Time constants of activation (τ): unit not given here; settings: for Figure 4D value per cell vs Voltage (mV) / Figure 5E value per cell vs Voltage (mV) / Figure 5F value per cell vs Voltage (mV): individual replicates; for Inactivation time constant / Fast deactivation time constant / Slow deactivation time constant: Evacetrapib (15 µmol/L); for Peak tail current: Evacetrapib 15 µmol/L
Text: Peak stea dy-sta te current was
Tail current was fit with a […]

[1] = molecular target: Kv11.1 missense variants, residues 536–628 (Homo sapiens, UniProt Q12809, Y475A); experiment: Multiplexed assay of variant effect (saturation mutagenesis, FACS surface trafficking); settings: missense variant Y475A
Method: (§1) Cells were grown to 40%–60% confluence and transiently transfected first with Bxb1 integrase (pCAG–NLS–HA–Bxb1) using FuGENE 6 (Promega), followed by KCNH2 variant libraries 24 hours later. On day 6, cells were induced with 1 μg/mL doxycycline. Integrated cell lines expressed a single variant alongside mCherry, while nonintegrated cells were tagBFP-positive and mCherry-negative.
(§2) Saturation mutagenesis of Kv11.1 was performed using a modified promoterless dsRed-Express derivative plasmid. WT KCNH2 was inserted adjacent to an AttB site, and NdeI/BglII sites were created via synonymous mutations. […] These were purified, ligated, and electroporated into MegaX DH10B Electrocomp Cells.
(§3) The mutant pool was subcloned into the AttB-KCNH2-HA:IRES:mCherry plasmid, with an 18-mer poly-N barcode inserted adjacent to the AttB site. Each cloning step was validated via Sanger sequencing. To link barcodes with mutants, the library was digested, ligated, and PCR amplified. Final products were purified and sequenced on an Illumina NovaSeq. Reads were analyzed with a custom Python script to identify barcodes linked to single mutations.
(§4) HEK293T cells were cultured in αMEM (Corning) with 10% FBS and 1% GlutaMax at 37°C with 5% CO2. The KCNH2 variant library was integrated into a HEK293T “landing pad” cell line containing an AttP site between a tetracycline-inducible promoter and a blue fluorescent protein gene.
(§5) Cells were transfected using FuGENE 6, first with a plasmid expressing Bxb1 integrase (pCAG–NLS–HA–Bxb1) and then, the following day, with the KCNH2 variant library. On day 6, cells were incubated with 1 μg/mL doxycycline to induce expression from the landing pad’s promoter. Resulting stable cell lines expressed one variant and mCherry, while nonintegrated cells expressed tagBFP and were mCherry-negative.
(§6) Stable HEK293T cell lines were cultured in T75 flasks until 80%–90% confluent. […] After treatments, high-throughput quantitation was performed at the Vanderbilt University Medical Center Flow Cytometry Shared Resource Core (FCSR).
(§7) The treated HEK293T library was sorted via FACS to isolate cells with high mCherry expression and successful AttB plasmid integration. […] Sorted cells were repopulated and prepared for freezing, pelleted at 1 million cells per tube.
(§8) DNA was isolated from cell pools (100 μL QuickExtract per 1 million cells) and the barcode was PCR amplified for Illumina sequencing using Q5 polymerase (25–35 cycles). Sequencing reads were demultiplexed and analyzed using custom Python scripts (https://github.com/kroncke-lab/KCNH2_DMS) to identify barcodes.
(§9) The scores were then averaged across the 4 replicate experiments (separate transfections of the mutant library pool).

[2] = molecular target: Kv11.1 missense variants, residues 536–628 (Homo sapiens, UniProt Q12809, Y475D); experiment: as above; settings: missense variant Y475D
Sequence of Kv11.1 missense variants, residues 536–628 (Homo sapiens, UniProt Q12809, Y475D) (Q12809 whole entry Y475D, the tested form may be a part): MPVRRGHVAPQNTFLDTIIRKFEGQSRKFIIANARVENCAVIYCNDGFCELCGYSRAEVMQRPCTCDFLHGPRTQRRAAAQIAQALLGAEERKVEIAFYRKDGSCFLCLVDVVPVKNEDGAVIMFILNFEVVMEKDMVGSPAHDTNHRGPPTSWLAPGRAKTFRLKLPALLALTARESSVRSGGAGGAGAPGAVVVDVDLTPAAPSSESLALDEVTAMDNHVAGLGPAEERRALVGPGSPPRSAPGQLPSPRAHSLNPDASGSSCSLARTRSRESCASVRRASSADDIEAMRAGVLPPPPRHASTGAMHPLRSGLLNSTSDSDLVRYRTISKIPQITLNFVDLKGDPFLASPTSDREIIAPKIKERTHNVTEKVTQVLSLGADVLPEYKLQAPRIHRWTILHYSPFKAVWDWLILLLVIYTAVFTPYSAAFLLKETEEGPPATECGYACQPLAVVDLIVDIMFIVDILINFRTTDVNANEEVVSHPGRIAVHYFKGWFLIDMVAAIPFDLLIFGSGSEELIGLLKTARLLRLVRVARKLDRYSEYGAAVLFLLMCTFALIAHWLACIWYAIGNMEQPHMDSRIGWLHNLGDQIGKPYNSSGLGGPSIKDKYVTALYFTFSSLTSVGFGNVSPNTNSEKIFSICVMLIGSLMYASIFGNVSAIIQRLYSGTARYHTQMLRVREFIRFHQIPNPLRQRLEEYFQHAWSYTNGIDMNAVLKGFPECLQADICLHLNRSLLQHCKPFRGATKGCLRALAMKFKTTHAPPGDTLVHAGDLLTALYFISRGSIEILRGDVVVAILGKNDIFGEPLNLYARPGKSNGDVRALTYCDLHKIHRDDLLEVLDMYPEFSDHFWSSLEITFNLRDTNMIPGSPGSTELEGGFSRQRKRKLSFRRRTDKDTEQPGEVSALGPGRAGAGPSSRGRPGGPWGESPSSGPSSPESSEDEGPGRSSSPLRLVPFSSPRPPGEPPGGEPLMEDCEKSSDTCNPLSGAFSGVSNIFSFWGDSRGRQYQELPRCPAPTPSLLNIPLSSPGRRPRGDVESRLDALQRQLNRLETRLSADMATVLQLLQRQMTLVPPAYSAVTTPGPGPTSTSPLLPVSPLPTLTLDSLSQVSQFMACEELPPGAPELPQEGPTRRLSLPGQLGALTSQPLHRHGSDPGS
Method: as §1, §2, §3, §4, §5, §6, §7, §8, §9

Sequence of WT Kv11.1 (Q12809 whole entry): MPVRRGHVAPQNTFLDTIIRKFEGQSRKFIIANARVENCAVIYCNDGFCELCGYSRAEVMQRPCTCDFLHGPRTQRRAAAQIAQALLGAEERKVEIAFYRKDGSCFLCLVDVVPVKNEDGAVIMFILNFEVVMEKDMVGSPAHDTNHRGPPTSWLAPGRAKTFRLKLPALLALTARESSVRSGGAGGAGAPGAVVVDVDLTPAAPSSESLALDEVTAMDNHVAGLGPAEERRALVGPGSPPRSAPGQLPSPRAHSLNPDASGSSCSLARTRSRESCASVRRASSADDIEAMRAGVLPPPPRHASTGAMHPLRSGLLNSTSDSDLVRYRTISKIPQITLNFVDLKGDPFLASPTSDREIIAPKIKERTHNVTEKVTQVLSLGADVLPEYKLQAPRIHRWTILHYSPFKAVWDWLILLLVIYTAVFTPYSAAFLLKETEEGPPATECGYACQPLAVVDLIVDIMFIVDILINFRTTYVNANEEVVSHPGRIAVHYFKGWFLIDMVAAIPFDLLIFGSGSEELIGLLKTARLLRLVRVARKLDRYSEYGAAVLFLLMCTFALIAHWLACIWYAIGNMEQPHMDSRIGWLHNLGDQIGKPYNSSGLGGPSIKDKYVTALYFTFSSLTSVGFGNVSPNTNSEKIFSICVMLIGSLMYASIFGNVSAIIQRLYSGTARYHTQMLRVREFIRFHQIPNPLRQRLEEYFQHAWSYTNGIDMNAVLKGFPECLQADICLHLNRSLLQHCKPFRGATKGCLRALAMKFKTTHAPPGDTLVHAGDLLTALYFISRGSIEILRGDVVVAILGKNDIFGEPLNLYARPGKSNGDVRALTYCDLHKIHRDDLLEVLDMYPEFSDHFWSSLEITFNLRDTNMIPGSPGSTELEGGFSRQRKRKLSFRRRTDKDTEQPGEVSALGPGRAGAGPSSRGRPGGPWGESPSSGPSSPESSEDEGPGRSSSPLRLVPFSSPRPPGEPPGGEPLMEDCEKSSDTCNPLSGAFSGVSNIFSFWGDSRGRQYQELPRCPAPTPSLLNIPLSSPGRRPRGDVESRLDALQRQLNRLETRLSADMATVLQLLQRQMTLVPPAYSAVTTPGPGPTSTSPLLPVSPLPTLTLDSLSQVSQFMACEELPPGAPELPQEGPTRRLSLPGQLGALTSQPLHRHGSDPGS
Sequence of Kv11.1 missense variants, residues 536–628 (Homo sapiens, UniProt Q12809, Y475A) (Q12809 whole entry Y475A, the tested form may be a part): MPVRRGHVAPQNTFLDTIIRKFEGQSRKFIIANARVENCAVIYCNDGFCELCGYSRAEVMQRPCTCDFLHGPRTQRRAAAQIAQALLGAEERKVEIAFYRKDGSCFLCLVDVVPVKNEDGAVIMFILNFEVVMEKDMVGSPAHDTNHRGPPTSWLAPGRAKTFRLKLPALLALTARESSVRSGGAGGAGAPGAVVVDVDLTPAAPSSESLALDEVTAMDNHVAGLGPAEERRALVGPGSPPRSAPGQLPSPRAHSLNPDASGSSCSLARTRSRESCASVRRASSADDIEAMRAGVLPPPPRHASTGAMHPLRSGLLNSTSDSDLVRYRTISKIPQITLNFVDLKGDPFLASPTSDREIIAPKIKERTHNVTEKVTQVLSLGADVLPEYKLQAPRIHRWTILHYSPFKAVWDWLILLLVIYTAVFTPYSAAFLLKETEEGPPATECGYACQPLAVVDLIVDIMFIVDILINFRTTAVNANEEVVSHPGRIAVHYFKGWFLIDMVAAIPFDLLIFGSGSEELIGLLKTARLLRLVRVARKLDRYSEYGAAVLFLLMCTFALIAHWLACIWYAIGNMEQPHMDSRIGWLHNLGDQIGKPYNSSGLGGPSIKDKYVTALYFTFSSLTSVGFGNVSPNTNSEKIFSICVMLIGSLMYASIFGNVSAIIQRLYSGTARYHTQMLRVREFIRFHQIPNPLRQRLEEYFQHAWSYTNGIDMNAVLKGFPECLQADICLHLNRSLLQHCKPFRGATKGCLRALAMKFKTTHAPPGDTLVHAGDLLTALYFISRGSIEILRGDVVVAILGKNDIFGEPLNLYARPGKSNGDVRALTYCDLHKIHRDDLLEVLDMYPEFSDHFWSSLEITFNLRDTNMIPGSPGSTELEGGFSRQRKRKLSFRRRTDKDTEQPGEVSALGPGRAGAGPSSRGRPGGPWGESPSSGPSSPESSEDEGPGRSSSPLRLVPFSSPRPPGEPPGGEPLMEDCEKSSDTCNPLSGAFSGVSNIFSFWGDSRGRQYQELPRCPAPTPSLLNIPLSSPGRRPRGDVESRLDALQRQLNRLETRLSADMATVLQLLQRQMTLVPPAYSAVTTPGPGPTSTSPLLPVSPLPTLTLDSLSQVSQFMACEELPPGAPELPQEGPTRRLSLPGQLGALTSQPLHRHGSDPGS

## Cc1cc(C)c2c(c1)[C@@H](N(Cc1cc(C(F)(F)F)cc(C(F)(F)F)c1)c1nnn(C)n1)CCCN2C[C@H]1CC[C@H](C(=O)O)CC1 [Evacetrapib, evacetrapib]
WT Kv11.1; Voltage -50 mV
  Figure 4D value per cell vs Voltage (mV): 17.1571 and 17.6888 and 17.131 and 15.567 and 16.0065 and 16.8291 and 17.2705 and 17.4541
  Figure 5E value per cell vs Voltage (mV): 902.031 and 870.108 and 1400.85 and 879.311 and 1017 and 1248.9
  Figure 5F value per cell vs Voltage (mV): 6388.9 and 7989.38 and 5622.96
WT Kv11.1; Voltage -60 mV
  Figure 4D value per cell vs Voltage (mV): 15.2329 and 15.5388 and 14.7818 and 13.5682 and 12.8587 and 15.0819 and 14.9385 and 15.3669
  Figure 5E value per cell vs Voltage (mV): 1032.08 and 966.812 and 405
  Figure 5F value per cell vs Voltage (mV): 3804.89 and 9449.49 and 8793.8 and 3687.69 and 9196.29
WT Kv11.1; Voltage -70 mV
  Figure 4D value per cell vs Voltage (mV): 13.1624 and 13.1509 and 12.2005 and 10.7217 and 10.4496 and 12.0627 and 12.9211 and 13.7327
  Figure 5E value per cell vs Voltage (mV): 981.118 and 839.618 and 778.428
  Figure 5F value per cell vs Voltage (mV): 5126.65 and 3642.53 and 2594.13
WT Kv11.1; Voltage -90 mV
  Figure 4D value per cell vs Voltage (mV): 8.355 and 8.669 and 7.114 and 6.058 and 6.564 and 7.143 and 9.871 and 9.491
  Figure 5E value per cell vs Voltage (mV): 372.839 and 359.851 and 360.592 and 394.825 and 418.114 and 332.621 and 441 and 468.124
  Figure 5F value per cell vs Voltage (mV): 3977.04 and 1576.1 and 1475.11 and 1269.7 and 1679.13 and 1263.86 and 1827.67 and 3682.76
WT Kv11.1; Voltage -100 mV
  Figure 4D value per cell vs Voltage (mV): 5.9805 and 6.106 and 5.3207 and 4.4265 and 4.931 and 4.972 and 6.757 and 6.876
  Figure 5E value per cell vs Voltage (mV): 366.452 and 329.996 and 269.807 and 269.273 and 487.907 and 220.859 and 396.726 and 472.93
  Figure 5F value per cell vs Voltage (mV): 2314.55 and 1511.55 and 907.537 and 927.568 and 1874.88 and 839.178 and 1131.37 and 2375.79
WT Kv11.1; Voltage -110 mV
  Figure 4D value per cell vs Voltage (mV): 4.757 and 4.592 and 3.934 and 3.367 and 4.027 and 3.635 and 4.594 and 4.969
  Figure 5E value per cell vs Voltage (mV): 253.98 and 258.663 and 186.827 and 175.481 and 304.962 and 138.114 and 283.639 and 296.398
  Figure 5F value per cell vs Voltage (mV): 1302.55 and 1153.11 and 698.663 and 755.178 and 1277.44 and 611.635 and 865.285 and 1384.34
WT Kv11.1; Voltage -120 mV
  Figure 4D value per cell vs Voltage (mV): 3.611 and 3.4981 and 2.97 and 2.532 and 3.293 and 2.583 and 3.34 and 3.894
  Figure 5E value per cell vs Voltage (mV): 244.589 and 219.981 and 132.908 and 108.36 and 189.369 and 89.3521 and 190.069 and 167.699
  Figure 5F value per cell vs Voltage (mV): 3324.93 and 1104 and 582.988 and 644.385 and 999.7 and 579.372 and 805.065 and 656.376
WT Kv11.1; Voltage step 0, WT
  Inactivation time constant: 11.1 ± 0.6 ms
WT Kv11.1; Voltage step 10, WT
  Inactivation time constant: 8.5 ± 0.3 ms
WT Kv11.1; Voltage step 20, WT
  Inactivation time constant: 6.3 ± 0.2 ms
WT Kv11.1; Voltage step 30, WT
  Inactivation time constant: 4.6 ± 0.2 ms
WT Kv11.1; Voltage step 40, WT
  Inactivation time constant: 3.4 ± 0.2 ms
WT Kv11.1; Voltage step 50, WT
  Inactivation time constant: 2.6 ± 0.2 ms
WT Kv11.1; Voltage step 60, WT
  Inactivation time constant: 2.1 ± 0.1 ms
WT Kv11.1; Voltage step 70, WT
  Inactivation time constant: 1.6 ± 0.1 ms
WT Kv11.1; Voltage step (mV) 0, WT, mean±SD
  Peak tail current: 66.0±31.5 pA/pF
WT Kv11.1; Voltage step (mV) 10, WT, mean±SD
  Peak tail current: 53.8±28.6 pA/pF
WT Kv11.1; Voltage step (mV) 20, WT, mean±SD
  Peak tail current: 43.6±25.2 pA/pF
WT Kv11.1; Voltage step (mV) 30, WT, mean±SD
  Peak tail current: 34.5±20.7 pA/pF
WT Kv11.1; Voltage step (mV) 40, WT, mean±SD
  Peak tail current: 28.0±16.9 pA/pF
WT Kv11.1; Voltage step (mV) -10, WT, mean±SD
  Peak tail current: 78.0±33.4 pA/pF
WT Kv11.1; Voltage step (mV) -20, WT, mean±SD
  Peak tail current: 89.2±35.1 pA/pF
WT Kv11.1; Voltage step (mV) -30, WT, mean±SD
  Peak tail current: 95.9±34.9 pA/pF
WT Kv11.1; Voltage step (mV) -40, WT, mean±SD
  Peak tail current: 95.8±33.5 pA/pF
WT Kv11.1; Voltage step (mV) -50, WT, mean±SD
  Peak tail current: 86.7±30.0 pA/pF
WT Kv11.1; Voltage step (mV) -60, WT, mean±SD
  Peak tail current: 68.2±25.6 pA/pF
WT Kv11.1; Voltage step (mV) -70, WT, mean±SD
  Peak tail current: 41.5±21.4 pA/pF
WT Kv11.1; Voltage step (mV) -80, WT, mean±SD
  Peak tail current: 7.2±20.3 pA/pF
WT Kv11.1; Voltage step (mV) -90, WT, mean±SD
  Peak tail current: -32.8±24.4 pA/pF
WT Kv11.1; Voltage step (mV) -100, WT, mean±SD
  Peak tail current: -76.7±33.7 pA/pF
WT Kv11.1; Voltage step (mV) -110, WT, mean±SD
  Peak tail current: -125.2±46.2 pA/pF
WT Kv11.1; Voltage step (mV) -120, WT, mean±SD
  Peak tail current: -176.7±61.8 pA/pF
WT Kv11.1; Voltage step -10, WT
  Inactivation time constant: 13.6 ± 0.7 ms
WT Kv11.1; Voltage step -20, WT
  Inactivation time constant: 15.5 ± 0.9 ms
WT Kv11.1; Voltage step -60, WT
  Fast deactivation time constant: 801.3 ± 344.8 ms
  Slow deactivation time constant: 6986.4 ± 2967.3 ms
WT Kv11.1; Voltage step -70, WT
  Fast deactivation time constant: 866.4 ± 104.0 ms
  Slow deactivation time constant: 3787.8 ± 1272.5 ms
WT Kv11.1; Voltage step -90, WT
  Fast deactivation time constant: 393.5 ± 46.0 ms
  Slow deactivation time constant: 2093.9 ± 1091.1 ms
WT Kv11.1; Voltage step -100, WT
  Fast deactivation time constant: 351.7 ± 97.5 ms
  Slow deactivation time constant: 1485.3 ± 634.8 ms
WT Kv11.1; Voltage step -110, WT
  Fast deactivation time constant: 237.3 ± 62.3 ms
  Slow deactivation time constant: 1006.0 ± 306.8 ms
WT Kv11.1; Voltage step -120, WT
  Fast deactivation time constant: 167.8 ± 54.1 ms
  Slow deactivation time constant: 1087.1 ± 925.0 ms
WT Kv11.1; WT
  rate of activation: decelerated the rate of activation
  rate of deactivation: slowed the rate of deactivation
WT Kv11.1; WT channels
  rate of inactivation: did not affect the rate of inactivation
  recovery from inactivation: slight delay in the reopening from inactivation
WT Kv11.1; WT, evacetrapib 15 μmol/L, individual cells
  Time constants of activation (τ): 764.055 and 877.888 and 1509 and 938.338 and 764.764 and 413.052
WT Kv11.1; WT, evacetrapib 15 μmol/L, mean ± SD
  Activation τ: 877 ± 360 ms
WT Kv11.1; WT, mean±SD, N=11
  Max (voltage dependence of activation): 78.2 ± 26.7 pA/pF
  Slope factor (voltage dependence of activation): 9.0 ± 1.6
  V1/2 (voltage dependence of activation): -4.0 ± 8.4 mV
WT Kv11.1; whole-cell patch-clamp
  WT currents: increases WT currents
[1]
  score (Figure 6B): 25.1035
[2]
  score (Figure 6B): 152.736
